In patent publication US20260183295A1, “METHODS AND COMPOSITIONS FOR TREATING CANCER” (Onconova Therapeutics, Inc., priority 2022, published 2026):

Tests used:
Assay in all cases: CETSA-MS, MDA-MB-231 intact cells
Type in all cases: cell-based
Conditions in all cases: 2 μM and 20 μM
FOXK1 = molecular target: T1, FOXK1 (Homo sapiens, UniProt P85037)
T1 construct: endogenous in cells; host or cells: MDA-MB-231
Method: (§1) TNBC MDA-MB-231 cells were grown at 37° C. in 5% CO2 and suspended in warm media and split into 4 equal volumes. […] Cells were incubated and then pelleted. Following pelleting, the cells were washed, resuspended, and heated in a thermal gradient. Following heating, the samples were flash frozen and lysed in lysis buffer, agitated by vortex, and sonicated prior to centrifugation. The supernatant was collected and denaturation buffer added. Cold acetone was then added to the cell samples, and protein collected by centrifugation. Pellets were then washed twice with cold acetone and the washed pellets prior to labeling.
(§2) The intact cell protein samples and lysate protein samples were then digested and labeled for mass spectrometry analysis according to the manufacturer's recommended protocols. Digested and labeled protein samples were analyzed by mass spectrometry proteomic analysis and the resulting protein targets were analyzed and plotted.

PIP4K2A = molecular target: T2, PIP4K2A (Homo sapiens, UniProt P48426)
T2 construct: endogenous in cells; host or cells: MDA-MB-231
Method: as §1, §2

GAK = molecular target: T3, GAK (Homo sapiens, UniProt O14976)
T3 construct: 148 targets unique to Compound 1 in MDA-MB-231 intact cells; endogenous in cells; host or cells: MDA-MB-231
Method: as §1, §2

GSK3B = molecular target: T4, GSK3B (Homo sapiens, UniProt P49841)
T4 construct: endogenous in cells; host or cells: MDA-MB-231
Method: as §1, §2

CDK17 = molecular target: T5, CDK17 (Homo sapiens, UniProt Q00537)
T5 construct: endogenous in cells; host or cells: MDA-MB-231
Method: as §1, §2

DHX9 = molecular target: T6, DHX9 (Homo sapiens, UniProt Q08211)
T6 construct: 148 targets unique to Compound 1 in MDA-MB-231 intact cells; endogenous in cells; host or cells: MDA-MB-231
Method: as §1, §2

LTBP2 = molecular target: T7, LTBP2 (Homo sapiens, UniProt Q14767)
T7 construct: endogenous in cells; host or cells: MDA-MB-231
Method: as §1, §2

RSF1 = molecular target: T8, RSF1 (Homo sapiens, UniProt Q96T23)
T8 construct: endogenous in cells; host or cells: MDA-MB-231
Method: as §1, §2

SCP2 = molecular target: T9, SCP2 (Homo sapiens, UniProt P22307)
T9 construct: endogenous in cells; host or cells: MDA-MB-231
Method: as §1, §2

SART3 = molecular target: T10, SART3 (Homo sapiens, UniProt Q15020)
T10 construct: endogenous in cells; host or cells: MDA-MB-231
Method: as §1, §2

HNRNPA1 = molecular target: T11, HNRNPA1 (Homo sapiens, UniProt P09651)
T11 construct: 148 targets unique to Compound 1 in MDA-MB-231 intact cells; endogenous in cells; host or cells: MDA-MB-231
Method: as §1, §2

SNX30 = molecular target: T12, SNX30 (Homo sapiens, UniProt Q5VWJ9)
T12 construct: endogenous in cells; host or cells: MDA-MB-231
Method: as §1, §2

LEO1 = molecular target: T13, LEO1 (Homo sapiens, UniProt Q8WVC0)
T13 construct: endogenous in cells; host or cells: MDA-MB-231
Method: as §1, §2

AIFM2 = molecular target: T14, AIFM2 (Homo sapiens, UniProt Q9BRQ8)
T14 construct: endogenous in cells; host or cells: MDA-MB-231
Method: as §1, §2

SCAF1 = molecular target: T15, SCAF1 (Homo sapiens, UniProt Q9H7N4)
T15 construct: endogenous in cells; host or cells: MDA-MB-231
Method: as §1, §2

FASTKD5 = molecular target: T16, FASTKD5 (Homo sapiens, UniProt Q7L8L6)
T16 construct: 148 targets unique to Compound 1 in MDA-MB-231 intact cells; endogenous in cells; host or cells: MDA-MB-231
Method: as §1, §2

FOSB = molecular target: T17, FOSB (Homo sapiens, UniProt P53539)
T17 construct: endogenous in cells; host or cells: MDA-MB-231
Method: as §1, §2

AP2S1 = molecular target: T18, AP2S1 (Homo sapiens, UniProt P53680)
T18 construct: endogenous in cells; host or cells: MDA-MB-231
Method: as §1, §2

ELL = molecular target: T19, ELL (Homo sapiens, UniProt P55199)
T19 construct: 148 targets unique to Compound 1 in MDA-MB-231 intact cells; endogenous in cells; host or cells: MDA-MB-231
Method: as §1, §2

DECR1 = molecular target: T20, DECR1 (Homo sapiens, UniProt Q16698)
T20 construct: endogenous in cells; host or cells: MDA-MB-231
Method: as §1, §2

HNRNPU = tested on: HNRNPU
Method: as §1, §2

GSK3A = molecular target: T21, GSK3A (Homo sapiens, UniProt P49840)
T21 construct: endogenous in cells; host or cells: MDA-MB-231
Method: as §1, §2

CHEK1 = molecular target: T22, CHEK1 (Homo sapiens, UniProt O14757)
T22 construct: endogenous in cells; host or cells: MDA-MB-231
T22 sequence (O14757 1-476): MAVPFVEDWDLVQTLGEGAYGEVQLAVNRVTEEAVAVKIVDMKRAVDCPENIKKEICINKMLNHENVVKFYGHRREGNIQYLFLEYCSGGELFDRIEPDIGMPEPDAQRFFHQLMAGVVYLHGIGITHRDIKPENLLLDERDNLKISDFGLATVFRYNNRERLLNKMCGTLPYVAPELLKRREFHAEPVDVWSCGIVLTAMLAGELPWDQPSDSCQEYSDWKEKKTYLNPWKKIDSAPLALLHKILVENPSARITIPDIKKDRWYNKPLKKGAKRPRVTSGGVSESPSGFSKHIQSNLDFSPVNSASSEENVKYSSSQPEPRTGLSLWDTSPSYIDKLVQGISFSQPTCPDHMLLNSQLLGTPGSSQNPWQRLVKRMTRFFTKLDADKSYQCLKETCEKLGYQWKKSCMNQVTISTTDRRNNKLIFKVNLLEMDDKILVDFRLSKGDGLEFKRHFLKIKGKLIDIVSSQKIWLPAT
Method: as §1, §2

FBRS = tested on: FBRS
Method: as §1, §2

CDKN1A = molecular target: T23, CDKN1A (Homo sapiens, UniProt P38936)
T23 construct: endogenous in cells; host or cells: MDA-MB-231
Method: as §1, §2

SYNE2 = molecular target: T24, SYNE2 (Homo sapiens, UniProt Q8WXH0)
T24 construct: endogenous in cells; host or cells: MDA-MB-231
Method: as §1, §2

PIP4K2B = molecular target: T25, PIP4K2B (Homo sapiens, UniProt P78356)
T25 construct: endogenous in cells; host or cells: MDA-MB-231
Method: as §1, §2

CST3 = molecular target: T26, CST3 (Homo sapiens, UniProt P01034)
T26 construct: 148 targets unique to Compound 1 in MDA-MB-231 intact cells; endogenous in cells; host or cells: MDA-MB-231
Method: as §1, §2

CAVIN1 = molecular target: T27, CAVIN1 (Homo sapiens, UniProt Q6NZI2)
T27 construct: endogenous in cells; host or cells: MDA-MB-231
Method: as §1, §2

FOS = molecular target: T28, FOS (Homo sapiens, UniProt P01100)
T28 construct: endogenous in cells; host or cells: MDA-MB-231
Method: as §1, §2

IFT52 = molecular target: T29, IFT52 (Homo sapiens, UniProt Q9Y366)
T29 construct: endogenous in cells; host or cells: MDA-MB-231
Method: as §1, §2

Measured: Group (CETSA-MS thermal shift)

T1 sequence (P85037 whole entry): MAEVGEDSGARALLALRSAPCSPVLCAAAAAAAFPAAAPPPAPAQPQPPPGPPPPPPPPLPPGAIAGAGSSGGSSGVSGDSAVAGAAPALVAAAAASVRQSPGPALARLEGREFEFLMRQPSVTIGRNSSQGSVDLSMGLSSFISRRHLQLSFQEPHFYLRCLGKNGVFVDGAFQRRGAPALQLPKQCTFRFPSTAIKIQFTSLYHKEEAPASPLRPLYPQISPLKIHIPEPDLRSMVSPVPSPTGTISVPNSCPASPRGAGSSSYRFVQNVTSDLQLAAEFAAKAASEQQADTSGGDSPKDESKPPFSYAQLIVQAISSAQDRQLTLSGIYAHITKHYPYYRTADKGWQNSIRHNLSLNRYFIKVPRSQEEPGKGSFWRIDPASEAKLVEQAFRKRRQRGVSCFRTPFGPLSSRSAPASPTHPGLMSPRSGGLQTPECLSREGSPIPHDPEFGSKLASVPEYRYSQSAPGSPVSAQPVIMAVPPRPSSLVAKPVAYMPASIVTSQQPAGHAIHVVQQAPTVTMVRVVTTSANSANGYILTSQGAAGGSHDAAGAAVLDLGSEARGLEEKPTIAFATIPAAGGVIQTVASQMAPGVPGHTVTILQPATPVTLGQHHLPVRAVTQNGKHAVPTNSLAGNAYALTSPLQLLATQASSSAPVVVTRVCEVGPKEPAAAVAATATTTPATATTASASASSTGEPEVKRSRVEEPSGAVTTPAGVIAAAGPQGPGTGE
T27 sequence (Q6NZI2 whole entry): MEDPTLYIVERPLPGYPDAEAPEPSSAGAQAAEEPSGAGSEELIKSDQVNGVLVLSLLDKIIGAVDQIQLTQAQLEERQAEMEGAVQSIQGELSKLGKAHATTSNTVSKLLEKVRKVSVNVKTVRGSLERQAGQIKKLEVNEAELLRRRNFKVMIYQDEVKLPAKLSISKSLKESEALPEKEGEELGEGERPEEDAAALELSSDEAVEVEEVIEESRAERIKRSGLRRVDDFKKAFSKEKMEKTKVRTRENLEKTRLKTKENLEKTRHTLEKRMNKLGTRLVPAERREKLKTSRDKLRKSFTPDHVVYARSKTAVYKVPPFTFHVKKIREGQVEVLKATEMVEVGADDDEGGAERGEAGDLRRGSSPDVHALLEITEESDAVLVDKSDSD
T11 sequence (P09651 whole entry): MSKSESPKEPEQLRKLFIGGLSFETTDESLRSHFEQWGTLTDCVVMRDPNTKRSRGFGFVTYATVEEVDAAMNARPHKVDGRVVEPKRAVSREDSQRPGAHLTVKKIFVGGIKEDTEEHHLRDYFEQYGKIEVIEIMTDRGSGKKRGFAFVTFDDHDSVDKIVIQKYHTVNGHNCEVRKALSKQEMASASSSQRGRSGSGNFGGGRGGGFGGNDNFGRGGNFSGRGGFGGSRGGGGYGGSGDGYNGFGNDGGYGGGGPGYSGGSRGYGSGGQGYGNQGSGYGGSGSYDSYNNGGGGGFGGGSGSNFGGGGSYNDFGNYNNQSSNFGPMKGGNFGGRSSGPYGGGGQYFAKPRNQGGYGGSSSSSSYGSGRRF
T7 sequence (Q14767 36-1821): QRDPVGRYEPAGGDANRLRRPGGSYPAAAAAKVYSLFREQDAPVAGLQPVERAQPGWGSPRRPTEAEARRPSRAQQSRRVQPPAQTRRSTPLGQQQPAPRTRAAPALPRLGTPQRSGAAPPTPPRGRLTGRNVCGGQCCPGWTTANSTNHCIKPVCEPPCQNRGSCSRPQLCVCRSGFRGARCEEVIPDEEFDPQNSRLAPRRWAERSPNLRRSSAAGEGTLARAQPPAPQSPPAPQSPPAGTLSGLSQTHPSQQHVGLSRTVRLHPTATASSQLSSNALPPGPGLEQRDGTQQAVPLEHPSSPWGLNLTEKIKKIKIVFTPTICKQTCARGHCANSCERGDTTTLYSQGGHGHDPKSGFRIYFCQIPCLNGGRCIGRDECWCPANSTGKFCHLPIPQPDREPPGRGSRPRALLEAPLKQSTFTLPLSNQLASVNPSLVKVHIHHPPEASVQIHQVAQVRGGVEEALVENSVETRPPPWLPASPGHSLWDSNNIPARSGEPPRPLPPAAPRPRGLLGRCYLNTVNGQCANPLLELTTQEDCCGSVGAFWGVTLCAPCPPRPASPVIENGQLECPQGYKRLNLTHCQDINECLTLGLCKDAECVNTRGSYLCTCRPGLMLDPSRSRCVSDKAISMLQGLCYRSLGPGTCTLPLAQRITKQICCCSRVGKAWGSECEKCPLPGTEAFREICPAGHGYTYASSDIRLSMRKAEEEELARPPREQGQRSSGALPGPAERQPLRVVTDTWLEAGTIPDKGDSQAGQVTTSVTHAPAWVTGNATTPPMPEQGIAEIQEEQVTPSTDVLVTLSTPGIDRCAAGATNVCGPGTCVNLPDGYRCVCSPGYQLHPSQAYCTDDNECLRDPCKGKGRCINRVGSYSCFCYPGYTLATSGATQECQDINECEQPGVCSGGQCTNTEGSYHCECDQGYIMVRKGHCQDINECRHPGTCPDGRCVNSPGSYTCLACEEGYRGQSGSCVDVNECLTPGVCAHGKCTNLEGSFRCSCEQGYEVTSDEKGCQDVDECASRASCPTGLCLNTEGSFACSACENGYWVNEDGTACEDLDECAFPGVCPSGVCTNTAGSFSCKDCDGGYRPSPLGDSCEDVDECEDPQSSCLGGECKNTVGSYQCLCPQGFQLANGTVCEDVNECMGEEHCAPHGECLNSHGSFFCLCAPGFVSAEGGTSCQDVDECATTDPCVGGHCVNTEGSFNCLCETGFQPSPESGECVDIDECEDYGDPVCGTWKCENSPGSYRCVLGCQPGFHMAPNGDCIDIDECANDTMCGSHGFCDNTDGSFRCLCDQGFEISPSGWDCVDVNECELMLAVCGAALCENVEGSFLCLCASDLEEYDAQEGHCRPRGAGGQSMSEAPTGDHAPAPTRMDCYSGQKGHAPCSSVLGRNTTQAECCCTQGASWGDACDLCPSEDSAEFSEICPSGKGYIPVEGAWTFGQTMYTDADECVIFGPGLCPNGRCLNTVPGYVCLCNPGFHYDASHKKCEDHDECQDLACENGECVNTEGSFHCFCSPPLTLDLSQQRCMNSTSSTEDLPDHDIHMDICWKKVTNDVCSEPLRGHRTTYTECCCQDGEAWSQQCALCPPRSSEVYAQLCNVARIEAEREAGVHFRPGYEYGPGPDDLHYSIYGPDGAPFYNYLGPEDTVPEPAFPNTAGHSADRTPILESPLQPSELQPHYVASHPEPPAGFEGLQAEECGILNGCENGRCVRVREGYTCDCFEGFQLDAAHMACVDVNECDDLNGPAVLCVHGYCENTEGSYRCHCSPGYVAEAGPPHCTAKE
T3 sequence (O14976 whole entry): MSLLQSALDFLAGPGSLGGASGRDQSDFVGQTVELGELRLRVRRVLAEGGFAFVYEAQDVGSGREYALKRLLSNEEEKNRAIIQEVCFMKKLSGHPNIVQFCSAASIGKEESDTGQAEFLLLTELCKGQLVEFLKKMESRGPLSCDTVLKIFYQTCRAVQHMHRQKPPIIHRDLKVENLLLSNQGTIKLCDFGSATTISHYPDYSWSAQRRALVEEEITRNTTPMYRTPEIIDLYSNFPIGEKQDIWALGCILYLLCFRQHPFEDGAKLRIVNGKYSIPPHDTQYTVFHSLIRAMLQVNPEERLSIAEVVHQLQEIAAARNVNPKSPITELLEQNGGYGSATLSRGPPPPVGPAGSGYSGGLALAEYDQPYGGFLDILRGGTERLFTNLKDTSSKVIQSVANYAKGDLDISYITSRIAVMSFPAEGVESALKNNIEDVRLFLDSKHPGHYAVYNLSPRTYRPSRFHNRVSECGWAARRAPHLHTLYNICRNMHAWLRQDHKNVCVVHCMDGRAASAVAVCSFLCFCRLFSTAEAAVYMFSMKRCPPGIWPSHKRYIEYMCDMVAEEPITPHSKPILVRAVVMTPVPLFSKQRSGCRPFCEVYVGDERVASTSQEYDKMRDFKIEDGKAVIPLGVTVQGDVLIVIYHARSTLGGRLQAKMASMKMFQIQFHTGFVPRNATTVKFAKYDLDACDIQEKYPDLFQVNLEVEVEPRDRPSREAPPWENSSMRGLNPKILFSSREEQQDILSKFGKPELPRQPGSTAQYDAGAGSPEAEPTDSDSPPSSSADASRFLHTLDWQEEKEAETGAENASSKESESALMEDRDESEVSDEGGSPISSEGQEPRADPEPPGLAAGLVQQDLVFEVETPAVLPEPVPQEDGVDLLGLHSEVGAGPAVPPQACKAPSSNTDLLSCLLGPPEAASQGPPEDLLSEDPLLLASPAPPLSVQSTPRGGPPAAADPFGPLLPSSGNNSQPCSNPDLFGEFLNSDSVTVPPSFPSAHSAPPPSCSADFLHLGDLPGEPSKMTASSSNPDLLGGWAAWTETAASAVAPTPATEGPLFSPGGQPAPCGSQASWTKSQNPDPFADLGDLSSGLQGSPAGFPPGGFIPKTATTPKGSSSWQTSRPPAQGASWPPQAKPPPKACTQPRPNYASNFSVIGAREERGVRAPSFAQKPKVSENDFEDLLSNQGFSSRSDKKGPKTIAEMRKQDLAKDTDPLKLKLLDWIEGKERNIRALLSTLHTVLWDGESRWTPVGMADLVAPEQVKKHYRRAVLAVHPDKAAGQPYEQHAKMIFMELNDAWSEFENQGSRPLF
T28 sequence (P01100 whole entry): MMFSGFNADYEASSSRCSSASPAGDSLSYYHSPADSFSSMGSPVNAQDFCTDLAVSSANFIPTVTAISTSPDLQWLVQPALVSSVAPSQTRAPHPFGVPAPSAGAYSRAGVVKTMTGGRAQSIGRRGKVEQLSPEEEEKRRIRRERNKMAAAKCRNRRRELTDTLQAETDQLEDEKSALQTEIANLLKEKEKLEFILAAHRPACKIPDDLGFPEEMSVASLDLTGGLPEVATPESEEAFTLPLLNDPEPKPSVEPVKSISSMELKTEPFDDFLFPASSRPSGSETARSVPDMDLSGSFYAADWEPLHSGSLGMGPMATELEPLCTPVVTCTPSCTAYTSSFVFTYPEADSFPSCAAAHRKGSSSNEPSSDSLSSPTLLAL

CN1CCN(c2ccc(Nc3ncc4cc(C#N)c(=O)n(C5CCCC5)c4n3)cc2)CC1 [Compound 1, 8-cyclopentyl-2-((4-(4-methylpiperazin-1-yl)phenyl)amino)-7-oxo-7,8-dihydropyrido[2,3-d]pyrimidine-6-carbonitrile]
Destabilization: FOXK1 | SCP2 | SART3 | SNX30 | AIFM2 | FOSB | AP2S1 | DECR1 | CHEK1 | CDKN1A | FOS
Stabilization: all other assays above
